Source: the supplement of paper PMC10307832

Key:
Test in all cases: relative viability (nuclei count vs DMSO), 5 days (fraction); higher = more cells survive
AZD1208 + AZD7762 = compound: N[C@@H]1CCCN(c2c(/C=C3\SC(=O)NC3=O)cccc2-c2ccccc2)C1 [AZD1208] + NC(=O)Nc1cc(-c2cccc(F)c2)sc1C(=O)N[C@H]1CCCNC1 [AZD7762] (partner 0.2 µM)
Procedure, shortened: (§1)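 Lung cancer cell lines, seeded in 1536-well plates, were treated the following day by pin tool with a single drug or with five library-drug doses (not always all listed) in √10 steps on top of a fixed anchor-drug dose. Cells were fixed and nuclei stained in one step after 5 days, and nuclei were counted. Relative viability is the nuclei count for treated wells divided by that for vehicle wells, reported as medians of duplicate plates.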

XMD14-99 + Bortezomib = compound: CN1CCN(CC1)C2=CC(=C(C=C2)NC3=NC(=C(S3)C(=O)C4=C(C=CC=C4Cl)Cl)N)OC [XMD14-99] + CC(C)C[C@H](NC(=O)[C@H](Cc1ccccc1)NC(=O)c1cnccn1)B(O)O [Bortezomib] (partner 0.002 µM)
Procedure, shortened: as §1

XMD14-99 + Vorinostat = compound: CN1CCN(CC1)C2=CC(=C(C=C2)NC3=NC(=C(S3)C(=O)C4=C(C=CC=C4Cl)Cl)N)OC [XMD14-99] + O=C(CCCCCCC(=O)Nc1ccccc1)NO [Vorinostat] (partner 1 µM)
Procedure, shortened: as §1

AZD1208 + Phenformin = compound: N[C@@H]1CCCN(c2c(/C=C3\SC(=O)NC3=O)cccc2-c2ccccc2)C1 [AZD1208] + N=C(N)NC(=N)NCCc1ccccc1 [Phenformin] (partner 250 µM)
Procedure, shortened: as §1

Cell Line	relative viability (AZD1208 + AZD7762; first compound 0.08 µM)	relative viability (AZD1208 + AZD7762; first compound 0.253 µM)	relative viability (AZD1208 + AZD7762; first compound 0.8 µM)	relative viability (AZD1208 + AZD7762; first compound 2.53 µM)	relative viability (AZD1208 + AZD7762; first compound 8 µM)	relative viability (XMD14-99 + Bortezomib; first compound 0.08 µM)	relative viability (XMD14-99 + Bortezomib; first compound 0.8 µM)	relative viability (XMD14-99 + Bortezomib; first compound 2.53 µM)	relative viability (XMD14-99 + Bortezomib; first compound 8 µM)	relative viability (XMD14-99 + Vorinostat; first compound 0.08 µM)	relative viability (XMD14-99 + Vorinostat; first compound 0.8 µM)	relative viability (XMD14-99 + Vorinostat; first compound 2.53 µM)	relative viability (XMD14-99 + Vorinostat; first compound 8 µM)	relative viability (AZD1208 + Phenformin; first compound 0.08 µM)	relative viability (AZD1208 + Phenformin; first compound 0.253 µM)	relative viability (AZD1208 + Phenformin; first compound 0.8 µM)	relative viability (AZD1208 + Phenformin; first compound 2.53 µM)	relative viability (AZD1208 + Phenformin; first compound 8 µM)
HCC-15	1.19	1.26	1.03	1.43	1.19	1.04	0.999	0.896	0.769	0.839	0.825	0.728	0.587	0.431	0.491	0.459	0.428	0.316
EKVX	0.76	0.801	0.674	0.719	0.606	0.965	0.998	0.983	0.736	0.701	0.714	0.655	0.493	0.23	0.247	0.258	0.256	0.228
NCI-H2126	1.03	1.08	1.02	0.996	0.928	1.16	1.08	1.08	0.946	0.694	0.806	0.694	0.579	0.506	0.507	0.493	0.545	0.466
NCI-H1437	1.18	1.13	1.06	1.09	1.05	0.519	0.408	0.323	0.287	0.797	0.66	0.641	0.382	0.324	0.258	0.267	0.277	0.314
ABC-1	0.905	0.728	0.785	0.884	1.35	0.296	0.343	0.346	0.281	1.13	0.996	1.01	0.646	0.232	0.238	0.212	0.229	0.2
PC-14	0.404	0.429	0.366	0.324	0.414	0.831	0.713	0.735	0.698	0.636	0.628	0.438	0.285	0.778	0.616	0.525	0.544	0.565
A-427	0.7	0.789	0.665	0.653	0.689	0.933	0.924	0.77	0.829	0.882	0.832	0.689	0.612	0.318	0.367	0.257	0.323	0.262
LCLC-97TM1	0.283	0.591	0.334	0.386	0.306	0.801	0.629	0.625	0.33	0.732	0.661	0.604	0.315	0.358	0.498	0.429	0.447	0.335
LCLC-103H	0.843	0.84	0.774	0.74	0.689	0.991	1.08	1.07	0.995	0.786	0.798	0.759	0.664	0.317	0.246	0.323	0.315	0.28
RERF-LC-KJ	0.991	1.08	0.631	0.759	0.611	1.07	1.18	1.08	0.852	0.788	0.685	0.553	0.595	0.402	0.44	0.427	0.41	0.379
BEN	0.749	0.578	0.562	0.503	0.478	0.88	0.901	0.924	0.531	0.591	0.547	0.595	0.522	0.269	0.267	0.244	0.259	0.269
NCI-H1666	0.953	0.888	0.762	0.856	0.937	0.872	0.782	0.825	0.629	1.04	0.967	0.947	0.895	0.499	0.583	0.54	0.601	0.559
LC-2-ad	0.842	0.888	0.798	0.804	0.897	0.993	0.978	1	0.732	0.672	0.704	0.646	0.553	0.585	0.604	0.52	0.534	0.519
ChaGo-K-1	0.849	0.931	0.813	0.952	0.776	1.06	1.02	0.964	0.92	0.741	0.73	0.68	0.719	0.54	0.569	0.524	0.475	0.373
NCI-H1975	0.746	0.784	0.691	0.746	0.642	0.388	0.359	0.347	0.272	0.675	0.673	0.612	0.475	0.413	0.449	0.393	0.404	0.359
NCI-H2347	0.835	0.747	0.72	0.764	0.781	1.22	0.691	0.981	0.553	0.533	0.598	0.455	0.358	0.302	0.46	0.363	0.347	0.389
HCC-366	0.368	0.362	0.371	0.41	0.387	1.04	1.05	1.03	0.884	0.42	0.324	0.296	0.218	0.588	0.668	0.538	0.655	0.431
EMC-BAC-2	1.21	1.13	0.866	1.03	0.875	0.989	1.08	0.995	0.923	0.493	0.585	0.447	0.199	0.535	0.63	0.497	0.509	0.428
